The source of these data is paper PMC9206686, “Expression, characterization, and activity optimization of a novel cellulase from the thermophilic bacteria Cohnella sp. A01” (Scientific Reports, 2022).

The experiment concerns the target T1, CelC307 (Cohnella sp. A01, UniProt A0A6C0R5L1).
T1 construct: Ni-NTA or heat-shock purified; GH5 domain predicted 77-362; primers imply N-terminus MGDLERL, C-terminus HAGAR before tag
T1 sequence (A0A6C0R5L1 1-491): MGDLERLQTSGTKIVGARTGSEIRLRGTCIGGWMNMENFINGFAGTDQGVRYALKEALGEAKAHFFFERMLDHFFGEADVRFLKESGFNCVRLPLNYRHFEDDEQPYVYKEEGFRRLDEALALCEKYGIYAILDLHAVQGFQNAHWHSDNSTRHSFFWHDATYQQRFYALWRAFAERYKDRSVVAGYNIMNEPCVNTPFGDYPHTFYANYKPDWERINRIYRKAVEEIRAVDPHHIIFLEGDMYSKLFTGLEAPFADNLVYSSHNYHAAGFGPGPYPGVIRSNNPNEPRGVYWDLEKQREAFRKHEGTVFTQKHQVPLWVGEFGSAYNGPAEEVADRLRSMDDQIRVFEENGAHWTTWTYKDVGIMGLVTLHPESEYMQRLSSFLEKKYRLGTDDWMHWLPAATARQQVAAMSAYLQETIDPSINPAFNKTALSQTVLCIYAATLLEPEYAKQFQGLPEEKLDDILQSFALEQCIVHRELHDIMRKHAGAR
Description: DNS reducing-sugar assay, Lineweaver-Burk. The class given is biochemical. Conditions: inhibitor, CMC substrate; […] inhibitor, pH […] °C.

With `OCC1(O)OC[C@@H](O)[C@@H](O)[C@@H]1O` (stereo partly drawn) [fructose], the inhibition mode result (mixed-type) is “the fructose and lactose exhibited the mixed-type inhibition mode”. Same read-out and setting: with `OC[C@H]1O[C@@H](O[C@H]2[C@H](O)[C@@H](O)C(O)O[C@@H]2CO)[C@H](O)[C@@H](O)[C@H]1O` (stereo partly drawn) [lactose] the entry was “the fructose and lactose exhibited the mixed-type inhibition mode”. Turning to `OC[C@H]1O[C@H](O[C@H]2[C@H](O)[C@@H](O)C(O)O[C@@H]2CO)[C@H](O)[C@@H](O)[C@@H]1O` (stereo partly drawn) [maltose], the inhibition mode entry (non-competitive) is reported as “the inhibition mode of maltose was non-competitive because the Vmax was reduced”.
